Results reported in EPA's ToxValDB 9.5 (doi:10.2903/j.efsa.2010.1632).
Values after ≈ are worked out from the molar mass of the structure shown.

What was measured:
Aphidius rhopalosiphi = experiment: LR50; higher = less toxic; settings: acute; duration: 48 hours; mortality
Lycopersicon sp. = settings: not reported; seedling emergence
Canidae = settings: oral, Dog Other, body weight
Pimephales promelas = settings: chronic/long-term; duration: 301 days; other
Cyprinodon variegatus = settings: acute; duration: 96 hours; mortality
Oncorhynchus mykiss = settings: acute; duration: 96 hours; mortality
Bibionidae = settings: chronic/long-term; duration: 28 days; development
Apis mellifera = settings: acute; duration: 48 hours; dermal; mortality
Oryctolagus sp. = settings: reproduction developmental; body weight
Neomysis kadiakensis = settings: chronic/long-term; duration: 35 days; reproduction
Daphnia magna = settings: chronic/long-term; duration: 21 days; reproduction
Rattus norvegicus = settings: body weight
Mus musculus = settings: chronic; duration: 78 weeks; body weight
Folsomia candida = settings: chronic/long-term; duration: 28 days; reproduction

With CC(C)(C)c1ccc(CSc2cnn(C(C)(C)C)c(=O)c2Cl)cc1 [Pyridaben] the LR50 (Aphidius rhopalosiphi) was 0.24 g/ha, the LEL (Lycopersicon sp.) was 560 g/ha and the LC50 (Tagia sp.; acute, duration: 14 days, mortality) was > 38 mg/kg. It also gave an NOEC (Tagia sp.; chronic/long-term, duration: 56 days, reproduction) of 0.29 mg/kg, an NOAEL (Canidae; chronic, duration: 1 years) of 1 mg/kg-day and an NOAEL (Canidae; subchronic, duration: 3 months) of 1 mg/kg-day. The NOEC (Pimephales promelas) was 0.00028 mg/L, the LC50 (Cyprinodon variegatus) was 0.017 mg/L (≈ 0.0466 µM) and the LC50 (Oncorhynchus mykiss) was 0.73 ng/mL (≈ 0.002 µM). For the same compound, the NOEC (Bibionidae) was 0.0051 mg/L, the LD50 (Apis mellifera) was > 0.024 µg/piece and the NOAEL (Oryctolagus sp.) was 5 mg/kg-day. For the same compound, the LD50 (Anas platyrhynchos; acute, oral, unspecified, mortality) was > 2500 mg/kg-day, the NOEC (Anas platyrhynchos; reproductive) was 10 mg/kg-day and the NOEC (Anas platyrhynchos; short-term, oral, feed, mortality) was 659 mg/kg-day. For the same compound, the NOEC (Neomysis kadiakensis) was 4.7e-05 mg/L, the NOEC (Daphnia magna) was 8.6e-05 mg/L and the NOEC (Rattus norvegicus; chronic) was 2.37 mg/kg-day. For the same compound, the NOAEL (Rattus norvegicus; chronic, duration: 2 years) was 1.1 mg/kg-day, the NOAEL (Rattus norvegicus; reproduction developmental) was 4.7 mg/kg-day and the NOAEL (Mus musculus) was 0.81 mg/kg-day. The LC50 (Colinus virginianus; acute, oral, diet, mortality) was > 4300 mg/kg-day, the LD50 (Colinus virginianus; acute, oral, mortality) was > 2250 mg/kg-day and the NOEC (Colinus virginianus; reproduction developmental) was 130 mg/kg-day. It also gave an NOEC (Folsomia candida) of 3.28 mg/kg.
